Holding throughout (format): physicochemical
Data set [1] in a line: pKa determination (Sirius GlpKa, potentiometric and UV). The procedure: pKa was measured on a Sirius GlpKa instrument equipped with a D-PAS attachment. A UV measurement was taken when the sample was in an aqueous solution and a potentiometric was taken when the sample was in a MeOH:H2O mixture. Measurements were taken at 25° C. The titration media was ionic strength adjusted with 0.15M KCl. Values determined from potentiometric measurements in the MeOH:H2O mixtures were corrected to 0% co-solvent via a Yasuda-Shedlovsky extrapolation. The data was refined using Refinement Pro software version 1.0. Prediction of pKa values was made using ACD pKa prediction software Ver 8.

Data set [2] can be described thus: LogP / LogPion / LogD by potentiometric titration (octanol:ISA water). How it is done:
LogP was determined using a potentiometric titration on a Sirius GlpKa instrument using three ratios of Octanol:ISA water to generate Log P, Log Pion, and Log D values. The data was refined using Refinement Pro software version 1.0. Predictions of LogP were made using ACD Ver 8 and Syracuse KOWWIN Ver 1.67 software.

A short description of data set [3]: Aqueous solubility with pH measurement. The settings on record: water; for solubility at 24 h: 25 °C, thermodynamic from solid. The procedure: Each sample was suspended in 0.25 ml of solvent (water) in an amount effective to produce a maximum final concentration of greater than or equal to about 10 mg/ml of the parent free form of the compound (i.e., adding excess sample to account for the weight of the salt). […] The filtrate was then diluted down 101 times.

The nature of data set [4]: Gravimetric vapor sorption (GVS). The procedure:
GVS was used to determine the amount of water adsorbed by a sample. Briefly, samples were run on a Hiden IGASorp moisture sorption analyzer running CFRSorp software. Sample sizes were typically 10 mg. A moisture adsorption desorption isotherm was performed as outlined below in Table 3 (2 scans giving 1 complete cycle). Samples were loaded/unloaded at typical room humidity and temperature (40% RH, 25° C.). Samples were then analyzed by XRPD after GVS analysis, e.g., to determine whether any structural changes took place after adsorption of water. The standard isotherm was performed at 25° C. at 10% RH intervals over a 0-90% RH range.

The nature of data set [5]: Storage at 40° C./75% RH under ambient light (XRPD, HPLC purity, colour). How it is done:
(§1) Purity analysis was performed on an Agilent HP1100 system equipped with a diode array detector and using Chemstation V9 software. Gradient, Reverse Phase methods (duration approximately 40 minutes) were used in a HPLC1 system. A Thermo-Electron Corporation HyPurity C18 5 um 150×4.6 mm column was used at 25° C. Test samples were made-up of 0.2 mg/ml of the compound in acetonitrile:water (1:1 v/v). 10 μl of sample was injected into the column. The flow rate through the column was 1 ml/min and the detection wavelength, bandwidth was 254,8 nm. Phase A was 0.1% phosphoric acid in water and Phase B was 0.1% phosphoric acid in acetonitrile. The mobile phase timetable is shown below in Table 2.
Form I was characterized by pKa, LogP, LogPion and LogD determination and prediction, XRPD before and after storage at 40° C./75% RH for 4 weeks, PLM, DSC and TGA, ^1HNMR, solubility in water with pH measurement, HPLC purity before and after storage at 40° C./75% RH for 4 weeks, water content, GVS with XRPD and purity analysis after measurement, and VT-XRPD.
Form II has been characterized using XRPD before and after storage at 40° C./75% RH for 3 weeks, PLM, DSC and TGA, Solubility in water with pH measurement, HPLC purity, Water content, GVS with XRPD analysis after measurement, and VT-XRPD.

A short description of data set [6]: Accelerated light stability study (Atlas Suntest CPS+ light box). The procedure:
as §1
Accelerated Light stability experiments were conducted using an Atlas Suntest CPS+light box. The light exposure was set to 550 W/m^2 and the run time was set to 168 hours (1 week). The chamber temperature and black standard temperature (which indicates how hot the test samples will become) were set to 25° C. The actual temperature in the sample chamber was 40° C.
Form I and II were assessed using an Atlas Suntest CPS+ light box to determine the effect of their exposure to light over a period of 168 hours (1 week). The light exposure was set to 550 W/M^2. Samples were weighed into either open weighing boats covered by pyrex glass beakers, glass vials with open tops (no lid), or glass vials covered in Aluminum foil. In all instances, the material was spread out into an even, thin layer.

The nature of data set [7]: 10 week stability study at 40° C./75% RH and 60° C./75% RH, light and dark. The procedure:
as §1
Samples of Form I and II were tested at 40° C./75% RH and 60° C./75% RH in both light and dark conditions for up to 10 weeks. As the samples were located in temperature/humidity control chambers, the exposure to light was limited to normal laboratory light conditions with artificial light and some winter daylight through the windows.
Approximately 100 mg of each sample was weighed into plastic weighing boats and spread out to form an even thin layer for each of the temperature/humidity/light conditions, as shown in Table 6. The dark samples were protected from exposure to light by wrapping them in aluminum foil. The foil was pierced to allow exposure to humidity.
Time points chosen for HPLC analysis during the stability study were T=0, 1, 2, 5 and 10 weeks. At 10 weeks, the samples were analyzed using XRPD, DSC and polarized light microscopy.

The nature of data set [8]: Variable temperature XRPD (VT-XRPD). The settings on record: heating; irreversible; hydrochloride. The procedure:
Samples run under ambient conditions were prepared as flat plate specimens using powder without grinding unless otherwise stated. Approximately 1-2 mg of the sample was lightly pressed on a glass slide to obtain a flat surface. Samples run under non-ambient conditions (VT-XRPD) were mounted on a silicon wafer with heat conducting compound. The sample was then heated to the appropriate temperature at about 20° C./minute and subsequently held isothermally for about 1 minute before data collection was initiated.
Three samples were studied using variable temperature XRPD (VT-XRPD): Form I as received, substantially pure Form I as prepared in Example 3, and substantially pure Form II as prepared in Example 3. VT-XRPD studies were initially carried out on substantially pure Form I as prepared in Example 3 with measurements at 25° C., 50° C., 80° C., 150° C., 220° C., 225° C., 250° C. and cooling to 29° C. Prior to measurement of the last XRPD pattern, the material was crushed due to the growth of large crystals. An overlay of the XRPD patterns can be found in FIG. 4A.
An experiment was also carried out on Form I as received, with measurements at 26° C., 50° C., 150° C., 200° C., 210° C., 220° C., 230° C. and cooling to 27° C. An overlay of the XRPD patterns can be found in FIG. 4B. […] (see peak at ˜14.7 2θ). […]

The mark [9] stands for this setting: 4 weeks at 40° C./75% RH, ambient light.

Each structure is given as a SMILES string. Where two headings read alike, the source gives them in different places.

The term pKa denotes the pH at which an ionisable group is half protonated. Broadly, the logP is the decadic logarithm of the partition coefficient of the neutral form, usually between octanol and water. The term logD denotes the decadic logarithm of the distribution of all forms, ionised or not, between an organic phase and buffer at a given pH. For orientation: solubility means how much of the substance goes into solution per volume.

As for `Cc1cc2c(-c3ccccc3F)nc(N3CCNCC3)nc2s1.Cl` [Form I, 4-(2-fluorophenyl)-6-methyl-2-(piperazin-1-yl)thieno[2,3-d]pyrimidine hydrochloride], the pKa in data set [1] (MeOH:H2O mixtures, extrapolated to 0% co-solvent, potentiometric determination in MeOH/water, Yasuda-Shedlovsky extrapolation, read-out: pKa (basic)) is 8.64; in data set [1] (aqueous solution, UV spectroscopy (D-PAS attachment), read-out: pKa of second basic centre), 0.81. The molecule also yielded a LogPion in data set [2] (0.15M KCl(Aq) / 1-octanol) of 1.41. Besides, in data set [2] (1-octanol / 0.15M KCl (aq), 0.15M KCl(Aq) / 1-octanol), the logP was determined as 3.96. Also, the logD in data set [2] (octanol/ISA water, pH 7.4) was found to be 2.72. The “pH of the solubility sample” value in data set [3] (25° C., 24 hours, hydrochloride) stood at 6.33. Besides, the values for the solubility at 24 h in data set [3] (read-out: Aqueous solubility (as the hydrochloride)) and in data set [3] (read-out: Aqueous solubility (free base equivalent)) were 2100 µg/mL and 1700 µg/mL, respectively. Besides, the “XRPD reanalysis after GVS” value in data set [4] (after one adsorption/desorption cycle) is “did not show any change”. In data set [4] (between 0 and 90% RH, single cycle, 25° C., hydrochloride), the “GVS total weight increase” value was determined as 5.0%. Besides, in data set [4] (between 20% and 30% RH), the GVS weight increase result is reported as “about 4.8%”. Also, in data set [4] (between 20% and 30% RH), the “GVS weight increase, equivalent water” value is recorded as 1.0 moles of water. In addition, the “Colour of material surface after storage” value in data set [5] (setting [9]) is “gone yellow”. Moreover, the “HPLC purity after storage” value in data set [5] (setting [9]) amounted to 99.0%. Also, in data set [5] (40° C./75% RH for four weeks), the “XRPD pattern after storage” value was “unchanged”. The “Purity after 1 week light exposure” value is 99.9 in data set [6] (20 ml glass vial covered in Al foil with loose lid (control)); 77.8 in data set [6] (20 ml glass vial, 550 W/m^2, 168 hours, hydrochloride); 79.4 in data set [6] (open weighing boat, 550 W/m^2, 168 hours, hydrochloride). The “HPLC purity after accelerated light study” value in data set [6] (one week, FIGS. 6A/6B (open weighing boats), hydrochloride) was 79.4%. The Purity % is 99.9% in data set [7] (40° C./75% RH, Dark, 1 week); 100% in data set [7] (40° C./75% RH, Dark, 2 weeks); 100% in data set [7] (40° C./75% RH, Dark, 5 weeks); 99.9% in data set [7] (40° C./75% RH, Dark, 10 weeks, hydrochloride); 99.9% in data set [7] (40° C./75% RH, Light, 1 week); 100% in data set [7] (40° C./75% RH, Light, 2 weeks). In addition, the Purity % amounted to 99.8% in data set [7] (40° C./75% RH, Light, 5 weeks, hydrochloride); 99.4% in data set [7] (40° C./75% RH, Light, 10 weeks, hydrochloride); 99.9% in data set [7] (60° C./75% RH, Dark, 1 week); 99.9% in data set [7] (60° C./75% RH, Dark, 2 weeks, hydrochloride); 100% in data set [7] (60° C./75% RH, Dark, 5 weeks); 100% in data set [7] (60° C./75% RH, Dark, 10 weeks, hydrochloride). For the same molecule, the Purity % amounted to 99.8% in data set [7] (60° C./75% RH, Light, 1 week); 99.8% in data set [7] (60° C./75% RH, Light, 2 weeks, hydrochloride); 99.5% in data set [7] (60° C./75% RH, Light, 5 weeks, hydrochloride); 99.4% in data set [7] (60° C./75% RH, Light, 10 weeks, hydrochloride); 100% in data set [7] (time point 0 weeks, hydrochloride). Besides, the “Yellow coloration of the surface (visual inspection)” value in data set [7] (after 10 weeks, both storage conditions) is “greatest”. For the same molecule, the “Stability as indicated by the HPLC data” value in data set [7] (up to 10 weeks, 40° C./75% RH and 60° C./75% RH) is “stable to ambient light levels as well as elevated temperature and humidity”.
With `Cc1cc2c(-c3ccccc3F)nc(N3CCNCC3)nc2s1.Cl` [Form III, 4-(2-fluorophenyl)-6-methyl-2-(piperazin-1-yl)thieno[2,3-d]pyrimidine hydrochloride], in data set [8], the “Temperature of conversion into Form II” value was 200-220 °C.

The values above are taken from patent US20070254891A1, “Crystalline forms of 4-(2-fluorophenyl)-6-methyl-2-(piperazin-1-yl)thieno[2,3-d]pyrimidine” (Dynogen Pharmaceuticals, Inc., priority 2006, published 2007).
